These results are taken from patent US5198552A, “Indole derivative having antiviral, interferon-inducing and immunomodulatory effects” (priority 1991, dated 1993).

Entries after “also recorded” stand apart in the source; their conditions may differ.

Series [1] is described as follows: Physical properties of the compound (heating, solubility, hygroscopicity, pH of solution). The series is classed as physicochemical. How it is done: The compound according to the invention is a crystalline powder, having a colour from white with tints of green-yellow to light-yellow with green hues; a bitter in taste, odourless. The melting point of the compound is not characteristic.
The solution containing 1 g of the compound in 1450 ml of water at 25° C. has pH of 4.37 (potentiometrically).

In the next series the test system is sarcoma-45. Nature of the series: Development of grafted sarcoma-45. The series is classed as in vivo, rats. The settings on record: for Sarcoma growth: 125 mg/kg daily during 5 days, p < 0.05. An excerpt: Control animals were given only a starch solution. The dynamic development of the tumor was monitored by intravital measurements of its mass.

As to `CCOC(=O)c1c(CSc2ccccc2)n(C)c2cc(Br)c(O)c(CN(C)C)c12.Cl.O` [preparation of the invention, ethyl 6-bromo-5-hydroxy-4-dimethylaminomethyl-1-methyl-2-phenylthiomethylindole-3-carboxylate hydrochloride monohydrate], the hygroscopicity result in series [1] is “non-hydroscopic”. Also, the pH of solution in series [1] (1 g of the compound in 1450 ml of water at 25° C., potentiometrically) is given as 4.37. In addition, the behaviour when heated entry in series [1] (heated for 3 hours at 110° to 120° C.) is recorded as “looses the molecule of H2 O”. Moreover, the “solubility in water, methanol, ethanol” value in series [1] (water, methanol, ethanol) was “poorly soluble”. The Sarcoma growth in the series on sarcoma-45 (1 month 10 days after grafting) came to 21.0 ± 3.9 cm^3; in the series on sarcoma-45 (1 month 16 days after grafting) it was 38.0 ± 7.5 cm^3; with sarcoma-45 (1 month after grafting), 8.2 ± 1.4 cm^3; in the series on sarcoma-45 (2 months after grafting), 39.9 ± 9.7 cm^3. Moreover, in the series with sarcoma-45 (12 month period of observation, hydrochloride monohydrate), the “effect on development of the tumor” value is listed as “inhibition of the development of tumor was found; also recorded: inhibitory effect on the development of a massive tumor”.
